One series deals with T1, hCBS (Homo sapiens, UniProt P35520).
T1 construct: GST (N); made in house; host or cells: E. coli BL21
T1 sequence (P35520 1-551): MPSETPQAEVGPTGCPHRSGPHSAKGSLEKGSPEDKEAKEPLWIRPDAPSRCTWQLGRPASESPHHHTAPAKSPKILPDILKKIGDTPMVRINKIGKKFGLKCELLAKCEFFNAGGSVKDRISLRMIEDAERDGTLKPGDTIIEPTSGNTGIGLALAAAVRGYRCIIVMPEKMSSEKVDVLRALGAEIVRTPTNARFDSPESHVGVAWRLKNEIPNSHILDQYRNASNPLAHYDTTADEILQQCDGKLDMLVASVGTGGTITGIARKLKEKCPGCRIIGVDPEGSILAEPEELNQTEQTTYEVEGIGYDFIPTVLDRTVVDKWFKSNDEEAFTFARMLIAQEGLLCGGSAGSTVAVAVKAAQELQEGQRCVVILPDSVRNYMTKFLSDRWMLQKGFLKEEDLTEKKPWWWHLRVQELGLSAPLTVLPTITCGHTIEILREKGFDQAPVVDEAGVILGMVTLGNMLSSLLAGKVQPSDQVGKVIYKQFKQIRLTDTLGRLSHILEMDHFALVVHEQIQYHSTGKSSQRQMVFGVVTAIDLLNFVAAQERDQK
The series can be described thus: enzyme kinetics of hCBS inhibition. Format: biochemical. As for the experimental part: Figure S2. The mode of action of CH004 in inhibiting hCBS. […] After incubation with DMSO or CH004 at 10 μM for 40 min, hCBS (20 μM) was diluted 200-fold and the activity was measured according to the standard assay protocol (Materials and Methods). The data are presented as percentages of control (CTR; DMSO, 100%) and shown as means ± SDs (n = 5). The effects of 0.05 and 10 μM CH004 on hCBS (100 nM) without pre-incubation were defined as positive control (PC) and negative control (NC), respectively. (B) Inhibition of hCBS by CH004 as a function of PLP concentration with Cys (20 mM) together with Hcys (10 mM) as substrates (non-competitive inhibition constant αKi=15.2 ± 4.9 μM). (C) Inhibition of hCBS by CH004 as a function of Cys concentration in the presence of 100 μM PLP and the absence of Hcys (mixed inhibition constant αKi=26.4 ± 8 μM). (D) Inhibition of hCBS by CH004 as a function of Hcys concentration in the presence of 20 mM Cys and 100 μM PLP (mixed inhibition constant αKi’=7.2 ± 1.6 μM). Each point in the Lineweaver-Burk plots represents the means of triplicate. The αKi or αKi’ values were calculated by using the non-linear fitting method for enzyme kinetics in GraphPad Prism 5. (E) Surface Plasmon Resonance assays analysis of the binding of CH004 to hCBS. Solutions with various concentrations of CH004 (0.097–12.5 µM) were injected into the chamber with a hCBS-coated sensor chip. The change of response units is shown over time. Dissociation constants for CH004 (KD) were calculated by using Biacore evaluation software (Materials and Methods).

Series [1] is described as follows: viable cells (Annexin V-PI double negative) with CH004 and ferroptosis inhibitors, flow cytometry. The note with it: human. (In flow cytometry, cells or beads pass a laser one at a time.)

Each structure is given as a SMILES string. “And” between values parts separate entries of the source, which are not always exact repeats. Equal entries are not always repeated. Where two headings read alike, the source gives them in different places.

On to `Cn1nc(Cc2ccccc2)nc2c(=O)n(C)c(=O)nc1-2` [CH004, 3-benzyl-1,6-dimethylpyrimido[5,4-e][1,2,4]triazine-5,7(1H,6H)-dione], for which the “mode of inhibition toward Cys and Hcys” value at hCBS is “mixed-type inhibition”. In addition, on hCBS, the “mode of inhibition toward PLP” value is recorded as “noncompetitive inhibition”. Further, the Ki at hCBS (100 μM PLP, absence of Hcys, read-out: αKi toward Cys (mixed inhibition constant)) was ~26.4 µM and 26.4 µM; on hCBS (20 mM Cys, 100 μM PLP, read-out: αKi’ toward Hcys (mixed inhibition constant)), ~7.2 µM and 7.2 µM; on hCBS (Cys 20 mM and Hcys 10 mM as substrates, read-out: αKi toward PLP (non-competitive inhibition constant)) it was ~15.2 µM and 15.2 µM. Further, in series [1], the viability at 24 h, 15 μM is 30.8%.

Usually viability stands for a read-out of living cells in per cent, often relative to untreated cells. Read a high viability as less harm to the cells.
